Results from patent publication US6528309B2, “Vacuum-mediated desiccation protection of cells” (The Regents of the University of California, priority 2001, dated 2003).
Read-outs that look alike come from different tables or passages of the source.

Legend:
[1] = system: Basinger human fibroblasts; test: Drying tolerance of Basinger human fibroblasts with disaccharides and polyols (trypan blue exclusion); format: cell-based; conditions: for Cell Culture Survival (%): concentration (50 mM or 10% solution), vacuum; for effectiveness in protecting the viability of the cells (in words): trypan blue exclusion
Protocol: (§1) Trypan blue exclusion was done by adding 10 μl of 0.4% trypan blue in 0.85% NaCl (Gibco BRL) to 10 μl of a single cell suspension of trypsinized cells and counting the number of trypan blue positive and negative cells. Colony assays were done by harvesting adherent cells 8-12 hours after rehydration, counting by hemacytometer, and plating either 200 or 300 cells in a 10 cm tissue culture dish. The same number of cells from a non-desiccated control were plated in parallel. Approximately 1 week later, the plates were stained with Giemsa and the colonies were counted.

[2] = system: Basinger fibroblast cells; test: Cytotoxicity of carbohydrates and polyols (maximum usable concentration)
Protocol: To determine whether any of these molecules have properties that would allow them to substitute for trehalose in promoting desiccation tolerance in mammalian cells, a number of carbohydrates and polyols were systematically studied. Each was tested initially to determine the maximum concentration at which they could be used without causing cytotoxicity. The ability of the different molecules to mediate desiccation tolerance was then tested at the optimal concentration for each.
Thus, in these experiments, Basinger fibroblast cells were tested in long term desiccation experiments (i.e., longer than 5 days of drying). In these experiments, Basinger cells at approximately 75% confluence were exposed to a polyol or disaccharide for 12 hours prior to removal of medium and desiccation under vacuum. Thermal shock was used to introduce the disaccharides or polyols into the cells to produce equal concentrations final of 50 mM in the cultures (with equal numbers of cells). […] FIG. 7 also provides a graphic representation of the results for various test disaccharides and polyols.

[3] = system: Basinger cells; test: Colony (plating efficiency) assay after desiccation and rehydration; format: cell-based, human; conditions: for ability to mediate desiccation tolerance, singly and together (in words): 3% glycerol and/or 50 mM trehalose, thermal shock, vacuum (FIG. 8); for ability of the cells to form colonies following rehydration: results not shown
Protocol: as §1
To definitively determine the effect of different desiccation protocols, an assay based on colony formation (i.e., “plating efficiency”) was used, as described in the following Examples. In this assay, rehydrated cells were replated at low density and the number of distinct colonies counted. In this way, only rehydrated cells able to undergo cell division were counted as “viable.” The pattern of viability determined by trypan blue exclusion and colony assay were the same (e.g., compare FIG. 2A with FIG. 2B), validating the use of trypan blue to measure the effect of various treatments on cell viability.
In subsequent experiments, trehalose was tested in combination with glycogen, glycerol, and sucrose. As for some anhydrobiotic organisms (e.g., Artemia cysts) glycerol accounts for about 4% of their dry weight and trehalose constitutes up to about 14% of their dry weight, these experiments were conducted to determine the effects of these compounds on cell survival. In this Figure, results are shown for Basinger cells plated in 6-well plates and exposed to 3% glycerol and/or 50 mM trehalose immediately prior to undergoing thermal shock and desiccation under vacuum. After the drying period was complete, media were added and the cells were incubated overnight. The following day, the cells were harvested and plated for viability determination using the colony assay described herein.

[4] = system: 12F and Basinger cells; conditions: human
[5] = system: 12F cells; test: Desiccation tolerance of 12F cells at different storage temperatures, with trehalose (trypan blue exclusion / FACS); format: cell-based, human; conditions: for Cell Survival: trehalose 50 mM by thermal shock, dried under vacuum
Protocol: as §1
For thermal shock experiments, trehalose solution (50 mM final concentration) in DMEM and 10% FBS, was added to a pellet of 1×10^6 cells to produce a cell suspension which was then incubated on ice for 5 minutes, and then for 10 minutes in a 37° C. water bath (Daw et al., Cryobiol., 10:126-133 [1973]; and Moore et al., Cell 54:777-785 [1988]). This cycle was repeated twice. For adherent cells, the cells were plated in 6-well plates and grown to 90-95% confluence prior to thermal shock with 50 mM trehalose as described above. These methods are described in more detail in the following Examples. However, it is not intended that the present invention be limited to any particular temperatures used for thermal shock, as it is known in the art that in some cases, cells can be shocked using different temperatures.
In these experiments, the effects of temperature and drying on cell survival were investigated. In addition, the effects of the presence of trehalose on cell survival under different conditions of temperature and drying were investigated. Ten 6-well plates of 12F cells were prepared at about 90-95 confluence. The day prior to the beginning of the drying period, five plates were exposed to thermal shock to introduce trehalose into the cells (as described above). On the first day of the drying period, all of the plates were dried, and the plates were incubated in pairs (i.e., one with trehalose and one without trehalose) at −70° C., −20° C., room temperature, and 37° C., for 4 days.
In additional experiments to determine the effect of temperature on the ability of cells to withstand desiccation, 6-well plates with 12F cells were prepared at approximately 90% confluence, dried under vacuum at room temperature as described above, and stored at −70° C., −20° C., 4° C., 20° C., and 37° C. for 3 days. In these experiments, two plates were used, one included trehalose (50 mM) introduced into the cells using thermal shock, as described above. […] The cells were then rehydrated and the viability was determined by trypan blue exclusion. […] The optimum survival temperature was determined to be about 20° C. (i.e., approximately room temperature). At the other temperatures examined, there were almost no viable cells remaining, as determined by trypan blue exclusion, and none were able to grow and form colonies (results not shown). In these experiments, the presence (“Tre(+)”)/absence (“Tre(−)”) of trehalose appeared to have no impact on the optimum temperature.
No colonies were ever grown from cells maintained in the desiccated state at temperatures other than approximately 20° C.

[6] = system: Basinger human fibroblasts; test: Cell survival after drying with trehalose combinations and trehalose alone; format: cell-based
Protocol: In this Example, experiments to observe the effects of various combinations of sugars on cell viability are described. The results obtained for these combinations were then compared with the results obtained for trehalose alone. The combinations used were trehalose with glycerol, and trehalose with mannitol. Controls were also tested with no sugars, and trehalose alone. In these experiments Basinger human fibroblasts were used.

[7] = system: Adherent Basinger cells; test: Trehalose dose response for desiccation tolerance and cytotoxicity; format: cell-based, human; conditions: 24 hours incubation
Protocol: In these experiments, the effects of trehalose concentration on desiccation tolerance were determined. Adherent Basinger cells were prepared in 6-well plates, and incubated at 37° C., with 10% CO2. When the cells reached 65-70% confluence, the cells were incubated with varying concentrations of trehalose (10 mM, 25 mM, 50 mM, 150 mM, and 500 mM) for 24 hours. The cells were exposed to thermal shock and desiccated as described above.

[8] = system: 12F cells; test: Preliminary vacuum drying experiments; format: cell-based
[9] = system: 12F cells; test: Effect of trehalose and vacuum on desiccation tolerance of 12F cells; format: cell-based, human; conditions: trehalose 50 mM, three days dried
Protocol: In this Example, experiments conducted to determine the effect of trehalose and vacuum on desiccation tolerance of 12F cells are described. The 12F cells were prepared at 95% confluence in five 6-well plates. On plates 1 (V+T+) and 3 (V−T+), trehalose (50 mM final concentration) was introduced by thermal shock, as described in above. Medium was then removed from each of the wells, and Plates 1 (V+T+) and 2 (V+T−) were vacuum sealed using the Magic Vac vacuum packaging system (Flaem Nuova) and maintained at room temperature. Plates 3 and 4 were sealed in bags without vacuum and also maintained at room temperature. Three days later, medium (DMEM) was added to the plates, and the plates incubated at 37° C. with 10% CO2 overnight. The next day, the cells were harvested and stained with trypan blue in order to determine the dead/live ratio.
In some experiments, the samples were divided. One portion of the sample was used in the analysis of live/dead cells using trypan blue, as described above, and the second portion was plated into fresh culture media at 25× dilution and incubated until cells grew in the culture. This allowed counting of the live cells based on their “plating efficiency.” This was considered to be the best way to estimate the ratio of dead to alive cells.

## OC[C@H]1O[C@@](CO)(O[C@H]2O[C@H](CO)[C@@H](O)[C@H](O)[C@H]2O)[C@@H](O)[C@@H]1O [Sucrose]
[1]; Day 3 of drying
  Cell Culture Survival (%): 39%
[1]; Day 4 of drying
  Cell Culture Survival (%): 28%
[1]; Day 5 of drying
  Cell Culture Survival (%): 9.1%
[1]; Day 6 of drying
  Cell Culture Survival (%): 7.2%
[1]
  effectiveness in protecting the viability of the cells (in words): as effective as trehalose

## Dextran
[1]; Day 3 of drying
  Cell Culture Survival (%): 0.9%
[1]; Day 4 of drying
  Cell Culture Survival (%): 2.4%
[1]; Day 5 of drying
  Cell Culture Survival (%): 1.7%
[1]; Day 6 of drying
  Cell Culture Survival (%): 0.8%
[1]
  effectiveness in protecting the viability of the cells (in words): completely ineffective
[2]
  concentration found to be toxic (very low survival, no growth upon passage): ≥ 5%

## Glycogen
[1]; Day 3 of drying
  Cell Culture Survival (%): 40.6%
[1]; Day 4 of drying
  Cell Culture Survival (%): 21.5%
[1]; Day 5 of drying
  Cell Culture Survival (%): 14%
[1]; Day 6 of drying
  Cell Culture Survival (%): 9.5%
[1]
  effectiveness in protecting the viability of the cells (in words): almost equally as effective

## OCC(O)CO [glycerol]
[1]; Day 3 of drying
  Cell Culture Survival (%): 2.6%
[1]; Day 4 of drying
  Cell Culture Survival (%): 4.8%
[1]; Day 5 of drying
  Cell Culture Survival (%): 0.7%
[1]; Day 6 of drying
  Cell Culture Survival (%): 3.1%
[2]
  optimum concentration: 3%
[2]; human
  concentration with long-term cytotoxic effect: above 4%
[2]; human, 12 h
  concentration found to be toxic (very low survival, no growth upon passage): ≥ 5%
[3]
  ability to mediate desiccation tolerance, singly and together (in words): roughly similar
  ability of the cells to form colonies following rehydration: able to maintain cellular viability
[4]
  concentration toxic for cells: above 5%

## OC[C@@H](O)[C@@H](O)[C@H](O)[C@H](O)CO [Mannitol]
[1]; Day 3 of drying
  Cell Culture Survival (%): 32%
[1]; Day 4 of drying
  Cell Culture Survival (%): 11%
[1]; Day 5 of drying
  Cell Culture Survival (%): 3.1%
[1]; Day 6 of drying
  Cell Culture Survival (%): 5.4%

## OC[C@H]1O[C@H](O[C@H]2O[C@H](CO)[C@@H](O)[C@H](O)[C@H]2O)[C@H](O)[C@@H](O)[C@@H]1O [Trehalose, D (+) trehalose dihydrate]
[5]; dried in the presence of trehalose, incubated at −70° C., no growth upon plating
  cells appearing to be "live" (FACS): about 4%
[5]; incubated at room temperature in the presence of trehalose
  survival rate (in words): very high
[5]; storage at RT (room temperature)
  Cell Survival: 34%
[5]; storage temperature 4° C.
  Cell Survival: 2.8%
[5]; storage temperature 37° C.
  Cell Survival: 0.4%
[5]; storage temperature −20° C.
  Cell Survival: 0.7%
[5]; storage temperature −70° C.
  Cell Survival: 4%
[1]; Day 3 of drying
  Cell Culture Survival (%): 45%
[1]; Day 4 of drying
  Cell Culture Survival (%): 38%
[1]; Day 5 of drying
  Cell Culture Survival (%): 12%
[1]; Day 6 of drying
  Cell Culture Survival (%): 10.5%
[6]; Day 3
  Cell Survival: 7.5
[6]; Day 4
  Cell Survival: 0.8
[6]; Day 5
  Cell Survival: 2.2
[6]; Day 6
  Cell Survival: 1.5
[7]
  trehalose concentration resulting in obvious cytotoxicity: above 150 mM
[7]; thermal shock, desiccation, 10-500 mM tested
  optimal concentration of trehalose for desiccation tolerance: 50 mM
[8]
  trehalose concentration at which cytotoxic effects were observed: more than 50 mM
[3]
  ability to mediate desiccation tolerance, singly and together (in words): roughly similar
  ability of the cells to form colonies following rehydration: able to maintain cellular viability
[9]
  survival rate compared to the controls (in words): much higher survival rate

## OC[C@@H](O)[C@@H](O)[C@H](O)[C@@H](O)CO [Sorbitol]
[1]; Day 3 of drying
  Cell Culture Survival (%): 29%
[1]; Day 4 of drying
  Cell Culture Survival (%): 8%
[1]; Day 5 of drying
  Cell Culture Survival (%): 3.1%
[1]; Day 6 of drying
  Cell Culture Survival (%): 0.8%

## OC[C@H]1O[C@H](O[C@H]2[C@H](O)[C@@H](O)C(O)O[C@@H]2CO)[C@H](O)[C@@H](O)[C@@H]1O (mixture of isomers) [Maltose]
[1]; Day 3 of drying
  Cell Culture Survival (%): 31%
[1]; Day 4 of drying
  Cell Culture Survival (%): 17%
[1]; Day 5 of drying
  Cell Culture Survival (%): 4.2%
[1]; Day 6 of drying
  Cell Culture Survival (%): 2.5%
